Consider 22 compounds from patent publication US20250353812A1, “2,6-DIBENZYLIDENECYCLOHEXANONE OXIME COMPOUND AND PREPARATION METHOD THEREFOR AND USE THEREOF” (WENZHOU MEDICAL UNIVERSITY, priority 2022, published 2025).

In assay [1] the test system is TNF-α. The assay is described as follows: Inhibition of TNF-α release from J774A.1 macrophages stimulated by LPS (ELISA). It is filed as cell-based. To be noted: 10 μM compound pretreatment 2 h, then 0.5 μg/mL LPS 22 h, LPS control = 100, FIG. 2. On the procedure: (§1) The present invention tested the dose-effect relationship of some of the compounds of Examples in inhibiting the release of IL-6 and TNF-α from J774A.1 macrophages stimulated by LPS. The specific method is as follows: 1.2×10^6 […] macrophages were cultured by DMEM culture solution at 37° C., the culture solution was renewed after 24 h, the tested example compound (at a final concentration of 10 μM) was added for pretreatment for 2 h and then continuously treated by 0.5 μg/mL of LPS for 22 h, the culture solution was collected, and the content of IL-6 and TNF-α was detected by ELISA method. The total protein concentration was measured by collecting cells, the ELISA results were divided by the corresponding total protein concentration and calibrated by the IL-6 and TNF-α content of LPS control group as 100, and the average and error values were calculated.

Assay [2] deals with IL-6. The assay can be described thus: Inhibition of IL-6 release from J774A.1 macrophages stimulated by LPS (ELISA). Format: cell-based. To be noted: 10 μM compound pretreatment 2 h, then 0.5 μg/mL LPS 22 h, LPS control = 100, FIG. 1. As for the experimental part: as §1

Take `Fc1cccc(CCON=C2/C(=C/c3ccccc3C(F)(F)F)CCC/C2=C\c2ccccc2C(F)(F)F)c1` [Example 24, 2,6-(E,E)-(2-(trifluoromethyl)benzylidene)cyclohexan-1-one-3-(fluorophenethyl)oxime]: the “inhibitory effect on the release of TNF-α” value (“inhibitory effect … of TNF-α” for short) in assay [1] is listed as “significant inhibitory effect”.

With `Fc1ccc(CON=C2/C(=C/c3ccccc3C(F)(F)F)CCC/C2=C\c2ccccc2C(F)(F)F)cc1` [Example 19, 2,6-(E,E)-(2-(trifluoromethyl)benzylidene)cyclohexan-1-one-4-fluorobenzyl oxime], the “inhibitory effect … of TNF-α” value in assay [1] is given as “significant inhibitory effect”.

Regarding `COCCON=C1/C(=C/c2ccc(OC)cc2)CCC/C1=C\c1ccc(OC)cc1` [Example 35, 2,6-(E,E)-(4-(methoxy)benzylidene)cyclohexan-1-one-(2-methoxyethyl)oxime], the “inhibitory effect … of TNF-α” value in assay [1] is reported as “significant inhibitory effect”. Moreover, in assay [2], the “inhibitory effect on the release of IL-6” value is on record as “significant inhibitory effect”.

With `FC(F)(F)c1ccccc1/C=C1\CCC/C(=C\c2ccccc2C(F)(F)F)C1=NOCCC1OCCO1` [Example 29], the “inhibitory effect … of TNF-α” value in assay [1] is on record as “significant inhibitory effect”.

For `FC(F)(F)c1ccccc1/C=C1\CCC/C(=C\c2ccccc2C(F)(F)F)C1=NOCC1CCOCC1` [Example 28, 2,6-(E,E)-(2-(trifluoromethyl)benzylidene)cyclohexan-1-one-(tetrahydro-2H-pyran-4-yl) methyl oxime], the “inhibitory effect … of TNF-α” value in assay [1] is “significant inhibitory effect”. Moreover, in assay [2], the “inhibitory effect on the release of IL-6” value was “significant inhibitory effect”.

Consider `COc1cccc(CON=C2/C(=C/c3ccccc3C(F)(F)F)CCC/C2=C\c2ccccc2C(F)(F)F)c1` [Example 16, 2,6-(E,E)-(2-(trifluoromethyl)benzylidene)cyclohexan-1-one-3-methoxybenzyl oxime], for which the “inhibitory effect on the release of IL-6” value in assay [2] is “significant inhibitory effect”.

Regarding `CCCON=C1/C(=C/c2ccccc2)CCC/C1=C\c1ccccc1` [Example 32, 2,6-(E,E)-(benzylidene)cyclohexan-1-one propyl oxime], in assay [1], the “inhibitory effect … of TNF-α” value is on record as “significant inhibitory effect”. Besides, the “inhibitory effect on the release of IL-6” value in assay [2] is “significant inhibitory effect”.

With `Cc1cccc(CCON=C2/C(=C/c3ccccc3C(F)(F)F)CCC/C2=C\c2ccccc2C(F)(F)F)c1` [Example 22, 2,6-(E,E)-(2-(trifluoromethyl)benzylidene)cyclohexan-1-one-3-(methylphenylethyl)oxime], in assay [1], the “inhibitory effect … of TNF-α” value is “significant inhibitory effect”.

As to `FC(F)(F)c1ccccc1/C=C1\CCC/C(=C\c2ccccc2C(F)(F)F)C1=NOCC1OCCO1` [Example 27, 2,6-(E,E)-(2-(trifluoromethyl)benzylidene)cyclohexan-1-one-((1,3-dioxolan-2-yl)methyl)oxime], the “inhibitory effect … of TNF-α” value in assay [1] was “significant inhibitory effect”. Also, the “inhibitory effect on the release of IL-6” value in assay [2] is listed as “significant inhibitory effect”.

With `FC(F)(F)c1ccccc1/C=C1\CCC/C(=C\c2ccccc2C(F)(F)F)C1=NOCCN1CCCC1` [Example 5], in assay [2], the “inhibitory effect on the release of IL-6” value is “significant inhibitory effect”.

With `Fc1cccc(CON=C2/C(=C/c3ccccc3C(F)(F)F)CCC/C2=C\c2ccccc2C(F)(F)F)c1` [Example 18, 2,6-(E,E)-(2-(trifluoromethyl)benzylidene)cyclohexan-1-one-3-fluorobenzyl oxime], the “inhibitory effect on the release of IL-6” value in assay [2] was “significant inhibitory effect”.

As for `FC(F)(F)c1ccccc1/C=C1\CCC/C(=C\c2ccccc2C(F)(F)F)C1=NOCCCN1CCCC1` [Example 6, 2,6-(E,E)-(2-(trifluoromethyl)benzylidene)cyclohexan-1-one-3-(pyrrolidin-1-yl)propyl oxime], in assay [2], the “inhibitory effect on the release of IL-6” value is given as “significant inhibitory effect”.

With `FC(F)(F)c1ccccc1/C=C1\CCC/C(=C\c2ccccc2C(F)(F)F)C1=NOCc1c(Cl)cccc1Cl` [Example 20, 2,6-(E,E)-(2-(trifluoromethyl)benzylidene)cyclohexan-1-one-2,6-dichlorobenzyl oxime], the “inhibitory effect on the release of IL-6” value in assay [2] is recorded as “significant inhibitory effect”.

Regarding `CC(C)ON=C1/C(=C/c2ccccc2C(F)(F)F)CCC/C1=C\c1ccccc1C(F)(F)F` [Example 10, 2,6-(E,E)-(2-(trifluoromethyl)benzylidene)cyclohexan-1-one isopropyl oxime], the “inhibitory effect on the release of IL-6” value in assay [2] is recorded as “significant inhibitory effect”.

Consider `CN1CCN(CCCON=C2/C(=C/c3ccccc3C(F)(F)F)CCC/C2=C\c2ccccc2C(F)(F)F)CC1` [Example 30, 2,6-(E,E)-(2-(trifluoromethyl)benzylidene)cyclohexan-1-one-(3-(4-methylpiperazin-1-yl)propyl)oxime], for which the “inhibitory effect on the release of IL-6” value in assay [2] is given as “significant inhibitory effect”.

For the compound `FC(F)(F)c1ccccc1/C=C1\CCC/C(=C\c2ccccc2C(F)(F)F)C1=NOCCN1CCOCC1` [Example 7, 2,6-(E,E)-(2-(trifluoromethyl)benzylidene)cyclohexan-1-one-2-(morpholinoethyl)oxime], the “inhibitory effect … of TNF-α” value in assay [1] is “significant inhibitory effect”. Further, the “inhibitory effect on the release of IL-6” value in assay [2] is reported as “significant inhibitory effect”.

Consider `CC(C)ON=C1/C(=C/c2ccccc2F)CCC/C1=C\c1ccccc1F` [Example 33, 2,6-(E,E)-(2-(fluoro)benzylidene)cyclohexan-1-one isopropyl oxime], for which the “inhibitory effect … of TNF-α” value in assay [1] is “significant inhibitory effect”. In assay [2], the “inhibitory effect on the release of IL-6” value is given as “significant inhibitory effect”.

As for `FC(F)(F)c1ccccc1/C=C1\CCC/C(=C\c2ccccc2C(F)(F)F)C1=NOCC1CCCC1` [Example 13, 2,6-(E,E)-(2-(trifluoromethyl)benzylidene)cyclohexan-1-one cyclopentylmethyl oxime], in assay [2], the “inhibitory effect on the release of IL-6” value is “significant inhibitory effect”.

For the compound `Clc1ccc(/C=C2\CCC/C(=C\c3ccc(Cl)c(Cl)c3)C2=NOCCN2CCOCC2)cc1Cl` [Example 39, 2,6-(E,E)-(3,4-(dichloro)benzylidene)cyclohexan-1-one-2-(morpholinoethyl)oxime], in assay [1], the “inhibitory effect … of TNF-α” value is “significant inhibitory effect”. For the same compound, the “inhibitory effect on the release of IL-6” value in assay [2] is recorded as “significant inhibitory effect”.

Consider `FC(F)(F)c1ccccc1/C=C1\CCC/C(=C\c2ccccc2C(F)(F)F)C1=NOCC1CCCO1` (stereo not shown) [Example 26, 2,6-(E,E)-(2-(trifluoromethyl)benzylidene)cyclohexan-1-one-((tetrahydrofuran-2-yl)methyl)oxime], for which the “inhibitory effect … of TNF-α” value in assay [1] is on record as “significant inhibitory effect”.

Consider `Oc1ccc(/C=C2\CCC/C(=C\c3ccc(O)cc3)C2=NOCC2CCCC2)cc1` [Example 37, 2,6-(E,E)-(4-(hydroxy)benzylidene)cyclohexan-1-one cyclopentylmethyl oxime], for which the “inhibitory effect … of TNF-α” value in assay [1] is given as “significant inhibitory effect”. Further, in assay [2], the “inhibitory effect on the release of IL-6” value was “significant inhibitory effect”.

Turning to `Fc1ccc(CCON=C2/C(=C/c3ccccc3C(F)(F)F)CCC/C2=C\c2ccccc2C(F)(F)F)cc1` [Example 25, 2,6-(E,E)-(2-(trifluoromethyl)benzylidene)cyclohexan-1-one-4-(fluorophenethyl)oxime], the “inhibitory effect … of TNF-α” value in assay [1] is listed as “significant inhibitory effect”. For the same compound, in assay [2], the “inhibitory effect on the release of IL-6” value is “significant inhibitory effect”.
